Assay results: patent US8809367B2, “1-1-Oxo-1,2,3,4-tetrahydroisoquinolin-7-yl)urea derivatives as N-formyl peptide receptor like-1 (FPRL-1) receptor modulators” (Allergan, Inc., priority 2011, dated 2014)

Molecular target: T1, FPRL-1 (Homo sapiens, UniProt P25090)
T1 construct: expressed in transfected cells
T1 sequence (P25090 1-351): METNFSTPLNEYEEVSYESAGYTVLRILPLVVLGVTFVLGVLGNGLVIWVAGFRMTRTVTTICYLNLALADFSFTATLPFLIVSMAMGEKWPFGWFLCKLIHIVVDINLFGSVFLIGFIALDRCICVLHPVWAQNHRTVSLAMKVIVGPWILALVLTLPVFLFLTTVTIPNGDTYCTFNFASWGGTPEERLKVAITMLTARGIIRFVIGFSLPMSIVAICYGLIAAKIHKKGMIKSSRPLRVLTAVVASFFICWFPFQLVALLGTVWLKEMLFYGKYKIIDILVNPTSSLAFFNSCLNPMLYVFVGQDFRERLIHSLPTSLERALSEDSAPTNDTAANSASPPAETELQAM
Assay: compound-induced calcium activity on FLIPR Tetra in CHO-Ga16 cells stably expressing FPRL1
Type: cell-based
Conditions: for FPRL-1 Ga16-CHO (eff): efficacy value in brackets under EC50; for EC50: tested at 0.61 to 10,000 nM
Description: CHO-Ga16 cells stably expressing FPRL1 were cultured in (F12, 10% FBS, 1% PSA, 400 μg/ml geneticin and 50 μg/ml hygromycin) and HEK-Gqi5 cells stable expressing FPR1 were cultured in (DMEM high glucose, 10% FBS, 1% PSA, 400 μg/ml geneticin and 50 μg/ml hygromycin). In general, the day before the experiment, 18,000 cells/well were plated in a 384-well clear bottom poly-d-lysine coated plate. The following day the screening compound-induced calcium activity was assayed on the FLIPR^Tetra. The drug plates were prepared in 384-well microplates using the EP3 and the MultiPROBE robotic liquid handling systems. Compounds were tested at concentrations ranging from 0.61 to 10,000 nM. Results are expressed as EC50 (nM) and efficacy values.

FPRL-1 Ga16-CHO (eff)	EC50	Structure (SMILES)
(0.89)	15 nM	CSc1ccc(NC(=O)Nc2ccc3c(c2)C(=O)N(CCCN)C(C)C3)cc1 (stereo not drawn) [Compound 16, 1-[2-(3-aminopropyl)-3-methyl-1-oxo-1,2,3,4-tetrahydroisoquinolin-7-yl]-3-[4-(methylthio)phenyl]urea]
(0.97)	3.3 nM	CSc1ccc(NC(=O)Nc2ccc3c(c2)C(=O)N(CCCN)[C@@H](c2ccc(C#N)cc2)C3)cc1 [Compound 11, (R)-1-[2-(3-aminopropyl)-3-(4-cyanophenyl)-1-oxo-1,2,3,4-tetrahydroisoquinolin-7-yl]-3-[4-(methylthio)phenyl]urea]
(0.96)	22 nM	C[S+]([O-])c1ccc(NC(=O)Nc2ccc3c(c2)C(=O)N(CCc2c[nH]cn2)C(c2ccc(C#N)cc2)C3)cc1 (stereo not drawn) [Compound 29, 1-{3-(4-cyanophenyl)-2-[2-(1H-imidazol-4-yl)ethyl]-1-oxo-1,2,3,4-tetrahydroisoquinolin-7-yl}-3-[4-(methylsulfinyl)phenyl]urea]
